These results are taken from patent publication US6710048B2, “Pyrazine derivatives as modulators of tyrosine kinases” (Ortho-McNeil Pharmaceutical, Inc., priority 2000, dated 2004).

Structures are written as SMILES. Like-named read-outs stand apart in the source and are kept apart here. Some results are limits rather than exact numbers.

Format in all cases: biochemical
The target of assay [1] is T1, Calmodulin Kinase (calmodulin-dependent protein kinase 2) (Rattus norvegicus, UniProt P11275).
T1 construct: a truncated version of the alpha subunit of the rat protein; purchased New England Biolabs 6060; host or cells: insect cells
Briefly: Calmodulin Kinase selectivity assay. The settings on record: Table 4 kinase selectivity; read-out: IC50, Assay 10 Calmodulin Kinase.
Description: Assays to test compound inhibition of other kinases were preformed using methods that measure the amount of phosphorylation of a biotinylated peptide substrate. Biotinylated peptide substrates were selected from the literature as appropriate for the enzyme being evaluated. […] Assay conditions vary slightly for each protein kinase, for example, insulin receptor kinase requires 10 mM MnCl2 for activity and Calmodulin-dependent protein kinase requires calmodulin and 2 mM CaCl2. The reaction mixture was dispensed into the wells of a streptavidin coated Flashplate and 1 μl drug stock in 100% DMSO was added to a 100 μl reaction volume resulting in a final concentration of 1% DMSO in the reaction. Enzyme was diluted in 50 mM Tris-HCl pH=8.0, 0.1% BSA and added to each well. The reaction was incubated for one hour at 30° C. in the presence of compound. After one hour the reaction mix was aspirated from the plate and the plate was washed with PBS containing 100 mM EDTA. The plate was read on a scintillation counter to determine ^33P-γ-ATP incorporated into the immobilized peptide. Test compounds were assayed in duplicate at 8 concentrations [100 tM, 10 μM, 1 μM, 100 nM, 10 nM, 1 nM, 100 μM, 10 μM]. A maximum and minimum signal for the assay was determined on each plate. The IC50 was calculated from the dose response curve of the percent inhibition of the maximum signal in the assay according to the formula [max signal−background/test compound signal−background (100)=% inhibition] by graphing the percent inhibition against the log concentration of test compound. Known inhibitor compounds appropriate for the kinase being assayed were also included on each plate.
Calmodulin Kinase (calmodulin-dependent protein kinase 2) is a truncated version of the alpha subunit of the rat protein produced in insect cells (New England Biolabs, Beverly, Mass., Cat. #6060).

Assay [2] deals with FGF-R2 (Homo sapiens, UniProt P21802). The experiment in a line: FGF-R2 kinase selectivity assay. The settings on record: Table 4 kinase selectivity; read-out: IC50, Assay 15 FGF-R2. As to the method:
Assays to test compound inhibition of other kinases were preformed using methods that measure the amount of phosphorylation of a biotinylated peptide substrate. Biotinylated peptide substrates were selected from the literature as appropriate for the enzyme being evaluated. The general procedure used to assay for kinase activity is as follows: A kinase reaction mix was prepared in 50 mM Tris-HCl pH=8, 10 mM MgCl2, 0.1 mM NaVO4, 1 mM DTT, 5-10 μM ATP, 0.25-1 μM biotinylated peptide substrate, 0.2-0.8 μCuries per well ^33P-γ-ATP [2000-3000 Ci/mmol]. Assay conditions vary slightly for each protein kinase, for example, insulin receptor kinase requires 10 mM MnCl2 for activity and Calmodulin-dependent protein kinase requires calmodulin and 2 mM CaCl2. The reaction mixture was dispensed into the wells of a streptavidin coated Flashplate and 1 μl drug stock in 100% DMSO was added to a 100 μl reaction volume resulting in a final concentration of 1% DMSO in the reaction. Enzyme was diluted in 50 mM Tris-HCl pH=8.0, 0.1% BSA and added to each well. The reaction was incubated for one hour at 30° C. in the presence of compound. After one hour the reaction mix was aspirated from the plate and the plate was washed with PBS containing 100 mM EDTA. The plate was read on a scintillation counter to determine ^33P-γ-ATP incorporated into the immobilized peptide. Test compounds were assayed in duplicate at 8 concentrations [100 tM, 10 μM, 1 μM, 100 nM, 10 nM, 1 nM, 100 μM, 10 μM]. A maximum and minimum signal for the assay was determined on each plate. The IC50 was calculated from the dose response curve of the percent inhibition of the maximum signal in the assay according to the formula [max signal−background/test compound signal−background (100)=% inhibition] by graphing the percent inhibition against the log concentration of test compound. Known inhibitor compounds appropriate for the kinase being assayed were also included on each plate.

For assay [3], the target named is T2, CDK1 (cyclin dependent kinase 1) / cyclin B (Homo sapiens, UniProt P06493).
T2 construct: purchased New England Biolabs 6020; host or cells: insect cells
The experiment in a line: CDK1 kinase assay.

Setting [4] is: Table 4 kinase selectivity, 10 = approximate value, read-out: IC50, Assay 2 CDK1.
Setting [5] is: Tables 1-3, >10 or >100 = no 50% inhibition at highest dose tested, read-out: CDK IC50.

T1 sequence (P11275 1-325): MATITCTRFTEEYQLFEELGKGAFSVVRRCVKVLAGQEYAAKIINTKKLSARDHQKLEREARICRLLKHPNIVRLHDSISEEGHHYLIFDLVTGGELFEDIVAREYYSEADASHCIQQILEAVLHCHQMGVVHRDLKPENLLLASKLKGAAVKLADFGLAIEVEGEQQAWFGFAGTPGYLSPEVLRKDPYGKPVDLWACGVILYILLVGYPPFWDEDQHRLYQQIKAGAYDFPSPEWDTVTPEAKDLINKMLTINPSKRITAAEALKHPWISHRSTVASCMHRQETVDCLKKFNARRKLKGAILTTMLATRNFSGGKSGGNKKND
T2 sequence (P06493 whole entry): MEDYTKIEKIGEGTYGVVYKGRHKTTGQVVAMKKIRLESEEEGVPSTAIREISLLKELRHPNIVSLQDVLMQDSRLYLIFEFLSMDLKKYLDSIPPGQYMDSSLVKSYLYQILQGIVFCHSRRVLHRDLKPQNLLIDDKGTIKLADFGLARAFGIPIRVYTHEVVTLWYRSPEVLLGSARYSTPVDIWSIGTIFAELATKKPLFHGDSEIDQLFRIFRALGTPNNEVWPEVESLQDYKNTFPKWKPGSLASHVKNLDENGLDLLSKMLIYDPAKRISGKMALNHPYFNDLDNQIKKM
T2 sequence (P14635 whole entry partner): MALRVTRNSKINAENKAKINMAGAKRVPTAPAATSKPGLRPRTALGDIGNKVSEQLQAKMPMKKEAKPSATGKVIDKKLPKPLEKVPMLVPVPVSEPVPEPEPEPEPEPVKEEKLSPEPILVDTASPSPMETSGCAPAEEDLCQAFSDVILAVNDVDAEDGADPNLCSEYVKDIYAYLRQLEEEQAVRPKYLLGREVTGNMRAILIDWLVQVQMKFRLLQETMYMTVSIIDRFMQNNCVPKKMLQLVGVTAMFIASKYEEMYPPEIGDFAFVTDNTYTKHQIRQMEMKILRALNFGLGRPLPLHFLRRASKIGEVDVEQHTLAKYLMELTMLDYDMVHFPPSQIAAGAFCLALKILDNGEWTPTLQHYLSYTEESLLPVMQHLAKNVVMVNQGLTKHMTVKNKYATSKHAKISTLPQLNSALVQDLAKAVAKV
Sequence of FGF-R2 (P21802 22-821, species assumed): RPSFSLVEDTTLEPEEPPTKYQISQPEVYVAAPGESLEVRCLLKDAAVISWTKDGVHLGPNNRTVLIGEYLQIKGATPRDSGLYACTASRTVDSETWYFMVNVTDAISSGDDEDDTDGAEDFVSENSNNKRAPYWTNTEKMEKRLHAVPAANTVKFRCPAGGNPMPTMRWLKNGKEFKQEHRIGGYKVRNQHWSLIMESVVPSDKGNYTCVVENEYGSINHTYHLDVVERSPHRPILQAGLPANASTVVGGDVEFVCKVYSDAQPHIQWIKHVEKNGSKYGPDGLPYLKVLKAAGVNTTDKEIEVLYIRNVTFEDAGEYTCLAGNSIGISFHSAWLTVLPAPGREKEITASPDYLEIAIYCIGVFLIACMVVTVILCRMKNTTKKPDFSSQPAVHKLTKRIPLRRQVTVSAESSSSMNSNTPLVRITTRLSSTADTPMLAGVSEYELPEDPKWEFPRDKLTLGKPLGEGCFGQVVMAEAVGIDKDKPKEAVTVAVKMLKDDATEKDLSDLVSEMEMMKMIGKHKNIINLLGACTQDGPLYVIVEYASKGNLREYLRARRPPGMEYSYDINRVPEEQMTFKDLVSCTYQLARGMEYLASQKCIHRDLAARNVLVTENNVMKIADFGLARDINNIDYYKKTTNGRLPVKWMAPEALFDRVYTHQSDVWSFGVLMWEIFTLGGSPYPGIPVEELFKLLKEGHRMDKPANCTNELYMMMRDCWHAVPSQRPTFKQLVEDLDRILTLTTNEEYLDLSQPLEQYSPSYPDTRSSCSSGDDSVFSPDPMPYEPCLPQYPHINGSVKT

With `OCCCNc1cncc(-c2cncc(Nc3cccc(Cl)c3)n2)c1` [Cmd 4], the IC50 was > 100 µM in assay [1], 0.207 µM in assay [2], > 10 µM in assay [3] (setting [4]) and 5.96 µM in assay [3] (setting [5]).

Consider `OCCCCNc1cncc(-c2cncc(Nc3cccc(Cl)c3)n2)c1` [Cmd 32], for which the concentration for half-maximal inhibition (IC50) in assay [1] is > 100 µM; in assay [2], 2.36 µM; in assay [3] (setting [4]) it was > 100 µM; in assay [3] (setting [5]), > 100 µM.

As for `CN(C)CCNc1cncc(-c2cncc(Nc3cccc(Cl)c3)n2)c1` [Cmd 33, N′-[5-[6-[(3-chlorophenyl)amino]pyrazinyl]-3-pyridinyl]-N^2,N^2-dimethyl-1,2-ethanediamine], the half-maximal inhibitory concentration (IC50) in assay [1] is > 100 µM; in assay [2], 1.4 µM; in assay [3] (setting [4]), > 10 µM; in assay [3] (setting [5]) it was ~10 µM.

For the compound `CN(C)CCCNc1cncc(-c2cncc(Nc3cccc(Cl)c3)n2)c1` [Cmd 35], the half-maximal inhibitory concentration (IC50) in assay [1] is > 100 µM; in assay [2], 3.07 µM; in assay [3] (setting [4]), > 10 µM; in assay [3] (setting [5]) it was ~10 µM.

For `O=C(NCCCO)c1cncc(-c2cncc(Nc3cccc(Cl)c3)n2)c1` [Cmd 39], the IC50 in assay [1] is > 100 µM; in assay [2] it was 1.8 µM; in assay [3] (setting [4]) it was 34.8 µM; in assay [3] (setting [5]), 34.8 µM.

`Clc1cccc(Nc2cncc(-c3cncc(NCCCc4ccncc4)c3)n2)c1` [Cmd 71]: the 50% inhibitory concentration (IC50) is 4.89 µM in assay [1], 0.317 µM in assay [2], > 100 µM in assay [3] (setting [4]) and > 10 µM in assay [3] (setting [5]).

In the case of `Clc1cccc(Nc2cncc(-c3cncc(NCCCc4cccnc4)c3)n2)c1` [Cmd 72], the 50% inhibitory concentration (IC50) in assay [1] was > 100 µM; in assay [2], 0.293 µM; in assay [3] (setting [4]) it was > 100 µM; in assay [3] (setting [5]) it was > 10 µM.

Turning to `Clc1cccc(Nc2cncc(-c3cncc(NCCCN4CCCCC4)c3)n2)c1` [Cmd 73], the half-maximal inhibitory concentration (IC50) was found to be 7.55 µM in assay [1], 0.276 µM in assay [2], 6.1 µM in assay [3] (setting [4]) and 3.24 µM in assay [3] (setting [5]).

Regarding `Clc1cccc(Nc2cncc(-c3cncc(NCCCn4cccn4)c3)n2)c1` [Cmd 75], the IC50 is 27 µM in assay [1], 0.326 µM in assay [2], > 100 µM in assay [3] (setting [4]) and > 10 µM in assay [3] (setting [5]).

For the compound `Clc1cccc(Nc2cncc(-c3cncc(NCCCn4cncn4)c3)n2)c1` [Cmd 76], the half-inhibitory concentration (IC50) in assay [1] is 15.8 µM; in assay [2], 0.153 µM; in assay [3] (setting [4]) it was > 100 µM; in assay [3] (setting [5]), > 10 µM.
